Where no end group is shown, it is not given here. [ ]: non-standard residue; d: D form.
How the values were obtained:
[1] = Membrane permeation, diffusion potential assay; conditions: zwitterionic vesicles
Description: (xi) Membrane permeation induced by the peptides. Membrane permeation was assessed utilizing the diffusion potential assay (Loew et al., 1983; Sims et al., 1974) as previously described (Shai et al., 1991). In a typical experiment, in a glass tube, 4 μl of a liposomes suspension (final phospholipids concentration of 33 μM), in a K^+ containing buffer (50 mM K2 SO4, 25 mM HEPES-SO4^-2, pH 6.8), was diluted in 1 ml of an isotonic K^+ free buffer (50 mM Na2 SO4, 25 mM HEPES-SO4^-2, pH 6.8), and the fluorescent, potential-sensitive dye diS-C2 -5 was then added. Valinomycin (1 μl of 10^-7 M) was added to the suspension in order to slowly create a negative diffusion potential inside the vesicles, which led to a quenching of the dye's fluorescence. Once the fluorescence had stabilized, which took 3-10 minutes, peptides were added. The subsequent dissipation of the diffusion potential, as reflected by an increase in fluorescence, was monitored on a Perkin Elmer LS-50B spectrofluorometer, with the excitation set at 620 nm, the emission at 670 nm, and the gain adjusted to 100%. The percentage of fluorescence recovery, Ft, was defined as:
where I0 =the initial fluorescence, If =the total fluorescence observed before the addition of valinomycin, and It =the fluorescence observed after adding the peptide at time t.

[2] = phosphatidylglycerol/phosphatidylcholine (Beschiaschvili and Seelig, 1990); cited from earlier work
[3] = system: human red blood cells (hRBC); test: Hemolysis of human red blood cells; format: cell-based; conditions: for % hemolysis at 50 μM peptide / % hemolysis at 100 μM: 30 min at 37° C.; for hemolytic activity (dose response): up to maximum concentration tested (50 μM)
Description: (ix) Hemolysis of human red blood cells. The peptides were tested for their hemolytic activities against human red blood cells (hRBC). Fresh hRBC with EDTA were rinsed 3 times with PBS (35 mM phosphate buffer/0.15 M NaCl, pH 7.3) by centrifugation for 10 min at 800 g and resuspended in PBS. Peptides dissolved in PBS were then added to 50 μL of a solution of the stock hRBC in PBS to reach a final volume of 100 μL (final erythrocyte concentration, 5% v/v). The resulting suspension was incubated under agitation for 30 min at 37° C. The samples were then centrifuged at 800 g for 10 min. Release of hemoglobin was monitored by measuring the absorbance of the supernatant at 540 nm. Controls for zero hemolysis (blank) and 100% hemolysis consisted of hRBC suspended in PBS and Triton 1%, respectively.

Bacillus megaterium Bm11 = test: Antibacterial activity (MIC), growth inhibition in 96-well plates; format: cell-based; conditions: 100% inhibition of growth after 18-20 h at 37° C.
Escherichia coli D21 = test: as above; format: cell-based; conditions: 100% inhibition of growth after 18-20 h at 37° C.
[4] = system: Acinetobacter calcoaceticus Ac11; test: as above; format: cell-based; conditions: 100% inhibition of growth after 18-20 h at 37° C.

In the case of CC[C@H](C)[C@H](NC(=O)CN)C(=O)NCC(=O)N[C@@H](C)C(=O)N[C@H](C(=O)N[C@@H](CC(C)C)C(=O)N[C@@H](CCCCN)C(=O)N[C@H](C(=O)N[C@@H](CC(C)C)C(=O)N[C@H](C(=O)N[C@H](C(=O)NCC(=O)N[C@@H](CC(C)C)C(=O)N1CCC[C@H]1C(=O)N[C@@H](C)C(=O)N[C@@H](CC(C)C)C(=O)N[C@H](C(=O)N[C@@H](CO)C(=O)N[C@@H](Cc1c[nH]c2ccccc12)C(=O)N[C@H](C(=O)N[C@@H](CCCCN)C(=O)N[C@@H](CCCNC(=N)N)C(=O)N[C@@H](CCCCN)C(=O)N[C@@H](CCCNC(=N)N)C(=O)N[C@@H](CCC(N)=O)C(=O)N[C@@H](CCC(N)=O)C(N)=O)[C@@H](C)CC)[C@@H](C)CC)[C@@H](C)O)[C@@H](C)O)C(C)C)C(C)C [Melittin, reference compound], the “membrane permeating activity with PC vesicles” value [1] is given as “highly active”, the “surface partition coefficient reported for melittin” value [2] is given as 4.5±0.6×10^4 M^-1 and the “% hemolysis at 50 μM peptide” value [3] is given as 100%. The “hemolytic activity (dose response)” value [3] was “the most hemolytic”.
With CC[C@H](C)[C@H](NC(=O)[C@H](CCCCN)NC(=O)[C@H]1CCCN1C(=O)[C@@H](NC(=O)[C@H](CC(C)C)NC(=O)[C@H](C)NC(=O)[C@H](Cc1ccccc1)NC(=O)[C@H](Cc1ccccc1)NC(=O)CN)[C@@H](C)CC)C(=O)N[C@H](C(=O)N[C@@H](CO)C(=O)N[C@@H](CO)C(=O)N1CCC[C@H]1C(=O)N[C@@H](CC(C)C)C(=O)N[C@@H](Cc1ccccc1)C(=O)N[C@@H](CCCCN)C(=O)N[C@H](C(=O)N[C@H](CC(C)C)C(=O)N[C@H](CC(C)C)C(=O)N[C@@H](CO)C(=O)N[C@@H](C)C(=O)N[C@H](C(=O)NCC(=O)N[C@@H](CO)C(=O)N[C@@H](C)C(=O)N[C@@H](CC(C)C)C(=O)N[C@@H](CO)C(=O)N[C@@H](CO)C(=O)N[C@@H](CO)C(=O)NCC(=O)NCC(=O)N[C@@H](CCC(N)=O)C(=O)N[C@@H](CCC(=O)NCCN)C(=O)NCCN)C(C)C)[C@@H](C)O)[C@@H](C)CC [Peptide 1] the “hemolytic activity (dose response)” value [3] was “practically devoid of hemolytic activity”.
With CC[C@H](C)[C@H](NC(=O)[C@H](CCCCN)NC(=O)[C@@H]1CCCN1C(=O)[C@@H](NC(=O)[C@H](CC(C)C)NC(=O)[C@H](C)NC(=O)[C@H](Cc1ccccc1)NC(=O)[C@H](Cc1ccccc1)NC(=O)CN)[C@@H](C)CC)C(=O)N[C@H](C(=O)N[C@@H](CO)C(=O)N[C@@H](CO)C(=O)N1CCC[C@H]1C(=O)N[C@@H](CC(C)C)C(=O)N[C@@H](Cc1ccccc1)C(=O)N[C@@H](CCCCN)C(=O)N[C@H](C(=O)N[C@@H](CC(C)C)C(=O)N[C@@H](CC(C)C)C(=O)N[C@@H](CO)C(=O)N[C@@H](C)C(=O)N[C@H](C(=O)NCC(=O)N[C@@H](CO)C(=O)N[C@@H](C)C(=O)N[C@@H](CC(C)C)C(=O)N[C@@H](CO)C(=O)N[C@@H](CO)C(=O)N[C@@H](CO)C(=O)NCC(=O)NCC(=O)N[C@@H](CCC(N)=O)C(=O)N[C@@H](CCC(=O)NCCN)C(=O)NCCN)C(C)C)[C@@H](C)O)[C@@H](C)CC [Peptide 8, TApar] the “hemolytic activity (dose response)” value [3] was “the most hemolytic”.
In the case of CC[C@@H](C)[C@@H](NC(=O)[C@H](CC(C)C)NC(=O)[C@H](C)NC(=O)[C@@H]1CCCN1C(=O)[C@H](CC(C)C)NC(=O)CNC(=O)[C@@H](NC(=O)[C@@H](NC(=O)[C@H](CC(C)C)NC(=O)[C@H](NC(=O)[C@H](CCCCN)NC(=O)[C@H](CC(C)C)NC(=O)[C@H](NC(=O)[C@H](C)NC(=O)CNC(=O)[C@@H](NC(=O)CN)[C@@H](C)CC)C(C)C)C(C)C)[C@@H](C)O)[C@@H](C)O)C(=O)N[C@@H](CO)C(=O)N[C@@H](Cc1c[nH]c2ccccc12)C(=O)N[C@H](C(=O)N[C@H](CCCCN)C(=O)N[C@@H](CCCNC(=N)N)C(=O)N[C@@H](CCCCN)C(=O)N[C@@H](CCCNC(=N)N)C(=O)N[C@@H](CCC(N)=O)C(=O)N[C@@H](CCC(N)=O)C(=O)O)[C@@H](C)CC [Peptide 19], the “hemolytic activity (dose response)” value [3] is reported as “practically devoid of hemolytic activity”.
In the case of CC(C)C[C@H](NC(=O)[C@H](CC(C)C)NC(=O)[C@@H](CC(C)C)NC(=O)[C@@H](CC(C)C)NC(=O)[C@H](CC(C)C)NC(=O)[C@@H](N)CCCCN)C(=O)N[C@@H](CCCCN)C(=O)N[C@H](CC(C)C)C(=O)N[C@@H](CC(C)C)C(=O)N[C@H](CC(C)C)C(=O)N[C@@H](CC(C)C)C(=O)N[C@@H](CCCCN)C(N)=O [Peptide 22], the “hemolytic activity (in words)” value [3] is reported as “considerable hemolytic activity”.
With CC(C)C[C@H](NC(=O)[C@H](CCCCN)NC(=O)[C@@H](CC(C)C)NC(=O)[C@@H](CC(C)C)NC(=O)[C@H](CC(C)C)NC(=O)[C@@H](N)CCCCN)C(=O)N[C@@H](CC(C)C)C(=O)N[C@H](CC(C)C)C(=O)N[C@@H](CCCCN)C(=O)N[C@H](CC(C)C)C(=O)N[C@@H](CC(C)C)C(=O)N[C@@H](CCCCN)C(N)=O [Peptide 23] the “hemolytic activity (in words)” value [3] was “devoid of hemolytic activity”.
In the case of CC(C)C[C@H](NC(=O)[C@H](CCCCN)NC(=O)[C@@H](CC(C)C)NC(=O)[C@@H](CC(C)C)NC(=O)[C@H](CC(C)C)NC(=O)[C@@H](N)CCCCN)C(=O)N[C@@H](CCCCN)C(=O)N[C@H](CC(C)C)C(=O)N[C@@H](CCCCN)C(=O)N[C@H](CC(C)C)C(=O)N[C@@H](CC(C)C)C(=O)N[C@@H](CCCCN)C(N)=O [Peptide 24], the “hemolytic activity (in words)” value [3] is reported as “devoid of hemolytic activity”.
With “(Lys-Leu-Leu-Leu-Lys-Leu-Leu-Leu-Lys-Leu-Leu-Lys-Cys-NH2)5 Lys-Leu-Leu-Leu-Lys-Leu-Leu-Leu-Lys-Leu-Leu-Lys-NH2 [Peptide 92]” the “Minimal Inhibitory Concentration B. megaterium (Bm11)” value (Bacillus megaterium Bm11) was 0.05 µM, the “Minimal Inhibitory Concentration E. coli (D21)” value (Escherichia coli D21) was 0.2 µM and the “% hemolysis at 100 μM” value [3] was 0%.
With “(Lys-Leu-Leu-Leu-Lys-Leu-Lys-Leu-Lys-Leu-Leu-Lys-Cys-NH2)5 Lys-Leu-Leu-Leu-Lys-Leu-Leu-Leu-Lys-Leu-Leu-Lys-NH2 [Peptide 93]” the “Minimal Inhibitory Concentration B. megaterium (Bm11)” value (Bacillus megaterium Bm11) was 0.02 µM, the “Minimal Inhibitory Concentration E. coli (D21)” value (Escherichia coli D21) was 0.1 µM and the “% hemolysis at 100 μM” value [3] was 0%.
With “Gly-Phe-Phe-Ala-Leu-Ile-Pro-Lys-Ile-Ile-Ser-Ser-Pro-Leu-Phe-Lys-Thr-Leu-Leu-Ser-Ala-Val-(NH--CH2 --CH2 --NH2)2 (GFFALI[dP]KIISSPLFKTLLSAV; not fully specified (C-terminus); printed as Gly-Phe-Phe-Ala-Leu-Ile-Pro-Lys-Ile-Ile-Ser-Ser-Pro-Leu-Phe-Lys-Thr-Leu-Leu-Ser-Ala-Val-(NH—$CH_2$—$CH_2$—$NH_2$)$_2$; also: C-terminus written (NH--CH2--CH2--NH2)2) [Peptide 2]” the “Minimal Inhibitory Concentration B. megaterium (Bm11)” value (Bacillus megaterium Bm11) was 2.5 µM, the “Minimal Inhibitory Concentration E. coli (D21)” value (Escherichia coli D21) was 12.5 µM and the “Minimal Inhibitory Concentration A. calcoaceticus (Ac11)” value [4] was 12.5 µM. The “% hemolysis at 50 μM peptide” value [3] was 0%.
For KLLLKLLK [Peptide 29], the “Minimal Inhibitory Concentration B. megaterium (Bm11)” value (Bacillus megaterium Bm11) was 3 µM, the “Minimal Inhibitory Concentration E. coli (D21)” value (Escherichia coli D21) was 3 µM and the “% hemolysis at 100 μM” value [3] was 0%.
For KLLLLK [Peptide 28], the “Minimal Inhibitory Concentration B. megaterium (Bm11)” value (Bacillus megaterium Bm11) was 50 µM, the “Minimal Inhibitory Concentration E. coli (D21)” value (Escherichia coli D21) was 200 µM and the “% hemolysis at 100 μM” value [3] was 0%.
For “Lys-Gly-Phe-Phe-Ala-Leu-Ile-Pro-Lys-Ile-Ile-Ser-Ser-Pro-Leu-Phe-Lys-Thr-Leu-Leu-Ser-Ala-Val-(NH--CH2 --CH2 --NH2)2 (KGFFALI[dP]KIISSPLFKTLLSAV; not fully specified (C-terminus); printed as Lys-Gly-Phe-Phe-Ala-Leu-Ile-Pro-Lys-Ile-Ile-Ser-Ser-Pro-Leu-Phe-Lys-Thr-Leu-Leu-Ser-Ala-Val-(NH—$CH_2$—$CH_2$—$NH_2$)$_2$; also: D-Pro7 (position 7 is Ile), C-terminus written (NH--CH2--CH2--NH2)2) [Peptide 4]”, the “Minimal Inhibitory Concentration B. megaterium (Bm11)” value (Bacillus megaterium Bm11) was 1.5 µM, the “Minimal Inhibitory Concentration E. coli (D21)” value (Escherichia coli D21) was 7.5 µM and the “Minimal Inhibitory Concentration A. calcoaceticus (Ac11)” value [4] was 7.5 µM. For the same molecule, the “% hemolysis at 50 μM peptide” value [3] was 0%.
With “Lys-Lys-Gly-Phe-Phe-Ala-Leu-lle-Er-Lys-Ile-Ile-Ser-Ser-Pro-Leu-Phe-Lys-Thr- Leu-Leu-Ser-Ala-Val-(NH--CH2 --CH2 --NH2)2 [Peptide 5]” the “Minimal Inhibitory Concentration B. megaterium (Bm11)” value (Bacillus megaterium Bm11) was 0.75 µM, the “Minimal Inhibitory Concentration E. coli (D21)” value (Escherichia coli D21) was 3.5 µM and the “Minimal Inhibitory Concentration A. calcoaceticus (Ac11)” value [4] was 3.5 µM. For the same molecule, the “% hemolysis at 50 μM peptide” value [3] was 0%.
